Experimental data: US9862985B2, “Identification and susceptibility of microorganisms by species and strain” (SPECIFIC TECHNOLOGIES LLC, priority 2012, dated 2018)

Assays:
K. pneumoniae IS-007 [1] = assay: Colorimetric sensor array antibiotic susceptibility test on solid growth media; type: cell-based; conditions: vs control without antibiotic
Source text: (§1) To detect a microorganism by species and strain, a sample including the microorganism is placed in a container including culture medium and a colorimetric array, and the temporal response of the sensors to the metabolic products of the microorganism is monitored. Susceptibility can be assessed by inoculating a growth medium including a substance (e.g., an antibiotic) with a microorganism and monitoring the temporal response of the sensors while also monitoring the response of a control (e.g., no antibiotic).
FIG. 8 depicts container 800 configured for use to assess susceptibility of microorganisms. Container 800 includes base 802 and lid 804, with plates 806 positioned in base 802 opposite colorimetric sensor arrays 808 on lid 804. Microorganisms may be placed in contact with growth medium (e.g., a solid growth medium) in plates 806. A substance (e.g., a drug such as an antibiotic) may be added to the growth medium. In one example, rows and columns of plates 802 in container 800 may be used for different microorganisms, different substances (e.g., drugs effective to kill the microorganisms), or different concentrations of substances. After samples are loaded on plates 802, lid 804 is positioned over base 802, such that each colorimetric sensor array 808 is proximate a plate 806. Susceptibility is assessed via temporal response of the sensors in colorimetric sensor arrays. […]

K. pneumoniae IS-007 [2] = conditions: cited from earlier work
K. pneumoniae IS-020 = conditions: cited from earlier work
K. pneumoniae IS-133 = conditions: cited from earlier work
S. aureus IS-120 [3] = assay: Colorimetric sensor array antibiotic susceptibility test on solid growth media; type: cell-based
Source text: as §1
(§2) FIG. 8 depicts container 800 configured for use to assess susceptibility of microorganisms. Container 800 includes base 802 and lid 804, with plates 806 positioned in base 802 opposite colorimetric sensor arrays 808 on lid 804. Microorganisms may be placed in contact with growth medium (e.g., a solid growth medium) in plates 806. A substance (e.g., a drug such as an antibiotic) may be added to the growth medium. In one example, rows and columns of plates 802 in container 800 may be used for different microorganisms, different substances (e.g., drugs effective to kill the microorganisms), or different concentrations of substances. After samples are loaded on plates 802, lid 804 is positioned over base 802, such that each colorimetric sensor array 808 is proximate a plate 806. Susceptibility is assessed via temporal response of the sensors in colorimetric sensor arrays. Container 800 can be positioned in an apparatus (e.g., apparatus 700) for automated assessment of susceptibility.
(§3) Susceptibility is indicated by a lack of metabolic products compared to controls (no antibiotic).
(§4) In another susceptibility test, three strains of S. aureus were inoculated onto the solid growth media. […] S. aureus IS-124 was susceptible to both antibiotics in agreement with known susceptibility information that this strain is susceptible to Oxacillin and Vancomycin.

S. aureus IS-123 [4] = assay: as above; type: cell-based
Source text: as §1, §2, §3, §4

S. aureus IS-120 [5] = conditions: cited from earlier work
S. aureus IS-123 [6] = conditions: cited from earlier work
S. aureus IS-124 = conditions: concentration not given; cited from earlier work
[7] = antibiotic at 1-2 ug/ml in solid growth media
[8] = antibiotic at 2 ug/ml in solid growth media

Which results are given for `CO/N=C(\C(=O)N[C@@H]1C(=O)N2C(C(=O)[O-])=C(C[N+]3(C)CCCC3)CS[C@H]12)c1csc(N)n1` [Cefepime]?
susceptibility or resistance of the strain to the antibiotic (K. pneumoniae IS-007 [1]; antibiotic at 8 ug/ml in solid growth media): resistance; concentration at which the strain is susceptible (known susceptibility information) (K. pneumoniae IS-007 [2]): < 0.25 µg/mL; concentration below which the strain is resistant (known susceptibility information) (K. pneumoniae IS-007 [2]): below 64 ug/ml; concentration at which the strain is susceptible (known susceptibility information) (K. pneumoniae IS-020): < 1 µg/mL; concentration below which the strain is resistant (known) (K. pneumoniae IS-133): below 64 ug/ml

Which “susceptibility or resistance of the strain to the antibiotic” value (from here on “susceptibility or resistance”) (K. pneumoniae IS-007 [1]; antibiotic at 1 ug/ml in solid growth media) does the source give for `C[C@@H](O)[C@H]1C(=O)N2C(C(=O)O)=C(S[C@@H]3CN[C@H](C(=O)N(C)C)C3)[C@H](C)[C@H]12` [Meropenem] here?
The value was “susceptibility”.

What about the “concentration at which the strain is susceptible (known susceptibility information)” value (K. pneumoniae IS-020) of the same compound?
Its value is less than 0.25 µg/mL.

What about the “concentration below which the strain is resistant (known)” value (K. pneumoniae IS-133) of the same compound?
The value was “below 16 ug/ml”.

With `CN[C@H](CC(C)C)C(=O)N[C@H]1C(=O)N[C@@H](CC(N)=O)C(=O)N[C@H]2C(=O)N[C@H]3C(=O)N[C@H](C(=O)N[C@H](C(=O)O)c4cc(O)cc(O)c4-c4cc3ccc4O)[C@H](O)c3ccc(c(Cl)c3)Oc3cc2cc(c3O[C@@H]2O[C@H](CO)[C@@H](O)[C@H](O)[C@H]2O[C@H]2C[C@](C)(N)[C@H](O)[C@H](C)O2)Oc2ccc(cc2Cl)[C@H]1O` [Vancomycin] as the compound, how does the “susceptibility or resistance” value (S. aureus IS-120 [3]; [7]) read?
The value was “susceptibility”.

What about the “susceptibility or resistance” value (S. aureus IS-123 [4]; [7]) of the same compound?
The value was “susceptibility”.

What about the “known susceptibility of the strain to the antibiotic” value (shortened to “known susceptibility of the strain”) (S. aureus IS-120 [5]; concentration not given) of the same compound?
The value was “susceptible”.

And the “known susceptibility of the strain” value (S. aureus IS-123 [6]; concentration not given)?
Its value is “susceptible”.

And the “known susceptibility of the strain” value (S. aureus IS-124)?
Its value is “susceptible”.

With `Cc1onc(-c2ccccc2)c1C(=O)N[C@@H]1C(=O)N2[C@@H]1SC(C)(C)[C@@H]2C(=O)O` [Oxacillin] as the compound, how does the “susceptibility or resistance” value (S. aureus IS-120 [3]; [8]) read?
The value was “resistance”.

What about the “susceptibility or resistance” value (S. aureus IS-123 [4]; [8]) of the same compound?
Its value is “resistance”.

What about the “concentration below which the strain is resistant (known susceptibility information)” value (S. aureus IS-120 [5]) of the same compound?
Its value is “below 4 ug/ml”.

What about the “concentration below which the strain is resistant (known susceptibility information)” value (S. aureus IS-123 [6]) of the same compound?
The value was “below 4 ug/ml”.

And the “known susceptibility of the strain” value (S. aureus IS-124)?
Its value is “susceptible”.
